Results: US20160289678A1, “USE OF MICRORNA 146-A IN THE DIAGNOSIS, TREATMENT AND PREVENTION OF PICORNAVIRUS INFECTION AND MICRORNA 146-A ANTAGONISTS” (priority 2013, published 2016)
“Also recorded” adds a separate entry of the source.

What was measured:
miR-146a = miR-146a expression in organs of mEV71-infected mice by real-time RT-PCR; format: in vivo, C57BL/6 mice; conditions: treatment at 0 and 1 d.p.i.; particularly intestine, muscle and lung; vs mock infection / negative control
Excerpt: (§1) The sequence of LNA antagomiR-146a used in the example is 5′-[…]-3′ (SEQ ID NO:20). Even though the importance of miR-146a in EV71 pathogenesis was clearly elucidated by using miR-146a^−/− mice model, however, the therapeutic potential of miR-146a silencing should be practically evaluated in EV71 infection mouse model. LNA antagomiR-146a, designed locked nucleic acid, was first injected intraperitoneally to evaluate the potential adverse events caused by LNA antagomiRs. […] After making sure the safety of LNA antagomiRs, we next introduced LNA AntagomiR-146a into wild-type mice before or after virus infection as indicated and monitored clinical symptoms of mice daily. […] To verify whether attenuation of virus-induced miR-146a by LNA antagomiR-146a could restore the expression of miR-146a targets, IRAK1 and TRAF6 in assayed organs were measured by Western blot.
(§2) Individual Real-Time RT-PCR. Quantification of miR-146a, Homo RNU6B, mus U6 snRNA , mus IFNβ, and mus β-actin were performed using TaqMan microRNA individual assays or TaqMan gene expression assays (000468, 001093, 001973, Mm00439546_s1 and Mm00607939_s1; Life Technologies) according to the manufacturer's instructions. […] The threshold cycle (CT) is defined as the fractional cycle number at which the fluorescence passes the fixed threshold. […]
(§3) Mouse-adapted EV71 and LNA AntagomiRs Administration. […] The survival of mice was monitored daily. […]

IRAK1 and TRAF6 [1] = test: IRAK1 and TRAF6 expression in organs of mEV71-infected mice by Western blot; format: in vivo, C57BL/6 mice; conditions: specifically heart, lung and muscle
Excerpt: as §1
Western Blot. Cells or tissues were harvested in RIPA lysis buffer [50 mM Tris-HCl (pH 7.4), 150 mM NaCl, 1 mM EDTA, 1% Triton X-100, 0.1% SDS, 1% sodium deoxycholate, 1 mM PMSF, and protease inhibitor cocktail], and the protein concentration was measured by the BCA protein assay (BioRad). […]
Mouse-adapted EV71 and LNA AntagomiRs Administration. […] The survival of mice was monitored daily. […] The animals were monitored daily, and clinical signs, weight and mortality were recorded. […]

mEV71 = test: LNA antagomiR injection in EV71 infection mouse model: mice survival; format: in vivo, C57BL/6 mice
Excerpt: as §1
Mouse-adapted EV71 and LNA AntagomiRs Administration. C57BL/6 mice were provided by the Knockout Mouse Core Laboratory of National Taiwan University Center of Genomic Medicine, housed in specific pathogen-free animal rooms, and treated according to guidelines from the National Taiwan University College of Medicine and College of Public Health Institutional Animal Care and Use Committee (IACUC). Mouse-adapted EV71 (mEV71) was established referring to a report published by Wang, Y. F. in 2004. mEV71 was generated after four serial passages in neonate mice started from parental human EV71 Parental human EV71 was injected intraperitoneally and next generation mEV71, called 1st mEV71, was isolated from neonate mice brain tissue at 3 d.p.i. The isolated 1st mEV71 was then propagated in RD cells. The passage procedures were performed four times. To determine the 50% lethal dose (LD50), seven-day-old wild-type C57BL/6 mice were fed with indicated PFUs of mEV71. The survival of mice was monitored daily. For wild-type C57BL/6 mice and miR-146a−/− C57BL/6 mice inoculation, each group (n=9 to 13) housed in the same cage was infected with indicated PFUs of mEV71 through the oral route, and the control group was fed with culture medium. The animals were monitored daily, and clinical signs, weight and mortality were recorded. All mouse tissues were obtained from scarified mice with significant clinical illness signs or at 3 d.p.i. if mice had no significant illness signs. The tissues were further assayed for real-time RT-PCR, Western blot, plaque assay, immunohistochemistry staining, and so on. For LNA antagomiRs injection, wild-type mice were injected with LNA antagomiR-146a (1.2 mg/kg) or LNA antagomiR negative control (1.2 mg/kg) through the intraperitoneal route before or after virus infection as indicated and monitored daily. The institutional animal care and use committee (IACUC) approved all animal protocols.

[2] = Potential adverse events of LNA antagomiRs: HE staining and blood chemistry (liver, kidney, serum); format: in vivo, mice; conditions: intraperitoneal injection
Excerpt: as §1
Mouse-adapted EV71 and LNA AntagomiRs Administration. […] The survival of mice was monitored daily. […] The animals were monitored daily, and clinical signs, weight and mortality were recorded. […] For LNA antagomiRs injection, wild-type mice were injected with LNA antagomiR-146a (1.2 mg/kg) or LNA antagomiR negative control (1.2 mg/kg) through the intraperitoneal route before or after virus infection as indicated and monitored daily. […]

IFNβ [3] = test: IFNβ expression in EV71-infected mice by real-time RT-PCR; format: in vivo, C57BL/6 mice; conditions: EV71-infected wild-type mice treated at 0 and 1 d.p.i., vs mock infection and negative control
Excerpt: as §1, §2, §3

IFNβ promoter = IFNβ promoter luciferase assay in EV71-infected RD cells; format: cell-based, Human; conditions: henceforth 4 h.p.i., compared with negative control or mock transfection
Procedure: Luciferase Assay. All transfections were carried out in triplicate in 96-well plates. RD cells (1×10^4 per well) were seeded 24 h prior to transfection. The luciferase reporter constructs along with the control plasmids (pRL-TK Vector; Promega) were co-transfected into cells at the DNA ratio 5:1 in the presence of pSilencer miRNA expressing vectors (Life Technologies) as indicated by Lipofectamine LTX reagent (Life Technologies). After 48 h incubation, the Dual-Glo luciferase substrate (Promega) was added to each well and the luminescent signals were measured by Victor3 multilabel counter (PerkinElmer) according to the manufacturer's instructions. For IFNβ promoter assays, the reporter constructs were co-transfected with antagomiR-NC or antagomiR-146a into RD cells prior to virus infection. After 24 h incubation, all transfectants were infected with EV71 and assayed at indicated time points. The activity of Renilla luciferase was used as an internal control to normalize transfection efficiency.

TRAF6 and IRAK1 = TRAF6 and IRAK1 in mEV71-infected MEF cells; format: cell-based; conditions: MEF cells transfected, then mEV71 infection; vs antagomiR-NC
Excerpt: MEF cells were infected with mEV71, followed by quantification of miR-146a using real-time RT-PCR (n=3). MI, mock infection. * P-value <0.05 as compared with mock infection. (b) mEV71 infection suppressed IRAK1 and TRAF6 expressions in protein level in MEF cells. (c) Predicted mus miR-146a BSs within mus IRAK1 and TRAF6 3′UTRs (the first nucleotide following the stop codon was designated as +1). (d) The effect of the ectopic miR-146a on the endogenous IRAK1 and TRAF6. MEF cells were transfected with the miR-146a overexpressing vector or negative control and assayed for IRAK1 and TRAF6 and for miR-146a by western blot and real-time RT-PCR, respectively (n=3). MT, mock transfection; NC, negative control. (e) AntagomiR-146a restored mEV71-induced suppression of TRAF6 and IRAK1 in MEF cells. MEF cells were transfected with antagomiR-146a or antagomiR-NC followed by mEV71 infection. All data presented are mean±s.d. and all P-values are calculated by Student's t-test.

IRAK1 and TRAF6 [4] = test: IRAK1 and TRAF6 Western blot in EV71-infected RD cells; format: cell-based, Human; conditions: antagomiR transfected into host cells followed by virus infection
IRAK1 and TRAF6 [5] = test: IRAK1 and TRAF6 Western blot in EV71-infected Caco-2 cells; format: cell-based, Human; conditions: compared with negative controls
IFNβ [6] = test: IFNβ mRNA expression in EV71-infected RD cells by real-time RT-PCR; format: cell-based, Human; conditions: antagomiR-146a transfectants, EV71 infection

Substance | virus-induced miR-146a expression (miR-146a) | IRAK1 and TRAF6 expression (IRAK1 and TRAF6 [1]) | survival (mEV71; injection 1 hour before virus infection (0 d.p.i.), 1.2 mg/kg intraperitoneal, 2*10^8 PFU mEV71) [%] | survival (mEV71; injection at 1 d.p.i., 1.2 mg/kg intraperitoneal, 2*10^8 PFU mEV71) [%] | survival (mEV71; injection at 2 d.p.i., 1.2 mg/kg intraperitoneal) [%] | survival (mEV71; injection at 3 d.p.i.) | survival probability (mEV71; intraperitoneal, injected before (0 d.p.i.) or after (1 and 2 d.p.i.) virus infection) | pathological changes (HE staining and blood chemistry of liver, kidney, serum) [2] | IFNβ expression (IFNβ [3]) | IFNβ expression (IFNβ [3]; listed as LNA is antagomiR-146a) | IFNβ promoter activity (IFNβ promoter) | IFNβ promoter activity (IFNβ promoter; listed as AntagomiR-146a) | mEV71-induced suppression of TRAF6 and IRAK1 (TRAF6 and IRAK1) | IRAK1 and TRAF6 expression (IRAK1 and TRAF6 [4]) | IRAK1 and TRAF6 expression (IRAK1 and TRAF6 [4]; listed as AntagomiR-146a) | IRAK1 and TRAF6 expression (IRAK1 and TRAF6 [5]) | IRAK1 and TRAF6 expression (IRAK1 and TRAF6 [5]; listed as AntagomiR-146a) | IFNβ mRNA expression (IFNβ [6]) | IFNβ mRNA expression (IFNβ [6]; listed as AntagomiR-146a)
5′-AACCCATGGAATTCAGTTCTCA-3′ (LNA-modified, pattern not given here) [LNA antagomiR-146a, designed locked nucleic acid miR-146a antagonist, 22 nucleotides] | neutralized; also recorded: dramatically suppressed | restored | 80 | 70 | 56 | did not improve mice survival | improves survival probability | no significant pathological changes | regain of IFNβ production | induced | – | – | – | – | – | – | – | – | –
antagomiR-146a: specific antagomiR (Life Technologies) transfected into cells to neutralize virus-induced miR-146a (antisense AACCCATGGAATTCAGTTCTCA; LNA-modified, pattern not given here) | – | – | – | – | – | – | – | – | – | – | attenuated | restored | restored | restored | recovered remarkably | restored | restores | increased dramatically | eliminated the suppression
